{
  "source": "paper PMC5218480",
  "about": "(PLoS ONE, 2017)",
  "system": "MV-4-11 cells",
  "experiment": "Gene expression microarray analysis (Affymetrix PrimeView) and GSEA",
  "format": "cell-based, human",
  "design": "RFU PODN (11730768_x_at) / Fold change /veh PODN (11730768_x_at) / RFU LINC00158 (11744669_a_at) / Fold change /veh LINC00158 (11744669_a_at) / RFU DUSP10 (11751237_a_at) / Fold change /veh DUSP10 (11751237_a_at) / RFU ID3 (11757404_x_at) / Fold change /veh ID3 (11757404_x_at) / RFU PLEKHG5 (11737974_s_at) / Fold change /veh PLEKHG5 (11737974_s_at) / RFU LRRC4B (11730491_at) / Fold change /veh LRRC4B (11730491_at) / RFU GIMAP4 (11747438_a_at) / Fold change /veh GIMAP4 (11747438_a_at) / RFU KRT8 (11758183_x_at) / Fold change /veh KRT8 (11758183_x_at) / RFU CNN1 (11734310_a_at) / Fold change /veh CNN1 (11734310_a_at) / RFU VPS37D (11726825_at) / Fold change /veh VPS37D (11726825_at) / RFU C10orf10 (11716522_x_at) / Fold change /veh C10orf10 (11716522_x_at) / RFU KIR2DL2 /// KIR2DL4 /// KIR2DL5A /// KIR2DL5B /// KIR2DS1 /// KIR2DS2 /// KIR2DS3 /// KIR2DS4 /// KIR3DL3 /// KIR3DL3 /// KIR3DS1 (11738374_at) / Fold change /veh KIR2DL2 /// KIR2DL4 /// KIR2DL5A /// KIR2DL5B /// KIR2DS1 /// KIR2DS2 /// KIR2DS3 /// KIR2DS4 /// KIR3DL3 /// KIR3DL3 /// KIR3DS1 (11738374_at) / RFU C1QL1 (11718748_at) / Fold change /veh C1QL1 (11718748_at) / RFU TMPRSS4 (11747572_a_at) / Fold change /veh TMPRSS4 (11747572_a_at) / RFU HAMP (11756126_x_at) / Fold change /veh HAMP (11756126_x_at) / RFU RNFT2 (11725882_a_at) / Fold change /veh RNFT2 (11725882_a_at) / RFU NR4A2 (11747474_a_at) / Fold change /veh NR4A2 (11747474_a_at) / RFU ABCC12 (11746883_a_at) / Fold change /veh ABCC12 (11746883_a_at) / RFU TMEM136 (11760407_x_at) / Fold change /veh TMEM136 (11760407_x_at) / RFU CLDN22 /// WWC2 (11732394_at) / Fold change /veh CLDN22 /// WWC2 (11732394_at) / RFU HLA-DPB1 (11760878_x_at) / Fold change /veh HLA-DPB1 (11760878_x_at) / RFU SPINT1 (11716480_a_at) / Fold change /veh SPINT1 (11716480_a_at) / RFU GAP43 (11754022_s_at) / Fold change /veh GAP43 (11754022_s_at) / RFU A4GNT (11735810_at) / Fold change /veh A4GNT (11735810_at) / RFU PRB3 (11715151_x_at) / Fold change /veh PRB3 (11715151_x_at) / RFU TUBB4B (11761932_at) / Fold change /veh TUBB4B (11761932_at) / RFU CAPN14 (11732068_a_at) / Fold change /veh CAPN14 (11732068_a_at) / RFU TMCC2 (11721928_a_at) / Fold change /veh TMCC2 (11721928_a_at) / RFU IRGQ (11745062_a_at) / Fold change /veh IRGQ (11745062_a_at) / RFU FAM174B (11720279_a_at) / Fold change /veh FAM174B (11720279_a_at) / RFU TMPRSS4 (11748680_a_at) / Fold change /veh TMPRSS4 (11748680_a_at) / RFU FAM212B (11763350_a_at) / Fold change /veh FAM212B (11763350_a_at) / RFU PLEKHG5 (11743358_a_at) / Fold change /veh PLEKHG5 (11743358_a_at) / RFU ZSCAN30 (11745921_a_at) / Fold change /veh ZSCAN30 (11745921_a_at) / RFU CMKLR1 (11741424_a_at) / Fold change /veh CMKLR1 (11741424_a_at) / RFU LOC101060620 /// MAPK8IP1 (11723275_at) / Fold change /veh LOC101060620 /// MAPK8IP1 (11723275_at) / RFU SPTSSB (11747773_x_at) / Fold change /veh SPTSSB (11747773_x_at) / RFU PRSS12 (11739890_at) / Fold change /veh PRSS12 (11739890_at) / RFU BIN1 (11741810_x_at) / Fold change /veh BIN1 (11741810_x_at) / RFU WNT11 (11732464_a_at) / Fold change /veh WNT11 (11732464_a_at) / RFU C10orf10 (11716521_a_at) / Fold change /veh C10orf10 (11716521_a_at) / RFU C5orf56 (11738089_at) / Fold change /veh C5orf56 (11738089_at) / RFU CYB561 (11721691_x_at) / Fold change /veh CYB561 (11721691_x_at) / RFU ANKRD19P (11752326_a_at) / Fold change /veh ANKRD19P (11752326_a_at) / RFU OR2T12 /// OR2T33 /// OR2T8 (11738714_s_at) / Fold change /veh OR2T12 /// OR2T33 /// OR2T8 (11738714_s_at) / RFU VCAN (11748164_a_at) / Fold change /veh VCAN (11748164_a_at) / RFU JSRP1 (11732532_at) / Fold change /veh JSRP1 (11732532_at) / RFU KRTAP10-11 (11738290_x_at) / Fold change /veh KRTAP10-11 (11738290_x_at) / RFU MYO3A (11730013_a_at) / Fold change /veh MYO3A (11730013_a_at) / RFU EBF3 (11725865_a_at) / Fold change /veh EBF3 (11725865_a_at) / RFU CAMK2N1 (11719241_x_at) / Fold change /veh CAMK2N1 (11719241_x_at) / RFU C5orf56 (11738088_a_at) / Fold change /veh C5orf56 (11738088_a_at) / RFU OLFML3 (11715873_a_at) / Fold change /veh OLFML3 (11715873_a_at) / RFU LOC100653217 /// NTM (11731650_a_at) / Fold change /veh LOC100653217 /// NTM (11731650_a_at) / RFU MAPK11 (11762145_a_at) / Fold change /veh MAPK11 (11762145_a_at) / RFU FIZ1 (11724087_x_at) / Fold change /veh FIZ1 (11724087_x_at) / RFU OASL (11726364_x_at) / Fold change /veh OASL (11726364_x_at) / RFU SOX15 (11748057_x_at) / Fold change /veh SOX15 (11748057_x_at) / RFU CD79A (11719716_a_at) / Fold change /veh CD79A (11719716_a_at) / RFU HIST1H1D (11736915_at) / Fold change /veh HIST1H1D (11736915_at) / RFU CASKIN2 (11723855_a_at) / Fold change /veh CASKIN2 (11723855_a_at) / RFU LOC730098 (11760151_x_at) / Fold change /veh LOC730098 (11760151_x_at) / RFU OR4N2 (11742367_at) / Fold change /veh OR4N2 (11742367_at) / RFU PRRT2 (11749266_a_at) / Fold change /veh PRRT2 (11749266_a_at) / RFU SNX32 (11753110_a_at) / Fold change /veh SNX32 (11753110_a_at) / RFU CDHR5 (11726645_a_at) / Fold change /veh CDHR5 (11726645_a_at) / RFU RCAN1 (11760418_a_at) / Fold change /veh RCAN1 (11760418_a_at) / RFU FAM167A (11723789_a_at) / Fold change /veh FAM167A (11723789_a_at) / RFU FAM26E (11764081_at) / Fold change /veh FAM26E (11764081_at) / RFU ISYNA1 (11749810_s_at) / Fold change /veh ISYNA1 (11749810_s_at) / RFU ACY1 (11761880_at) / Fold change /veh ACY1 (11761880_at) / RFU 11764098_at / Fold change /veh 11764098_at / RFU SAMD14 (11745864_x_at) / Fold change /veh SAMD14 (11745864_x_at) / RFU NPB (11741838_a_at) / Fold change /veh NPB (11741838_a_at) / RFU TMPRSS6 (11731388_a_at) / Fold change /veh TMPRSS6 (11731388_a_at) / RFU KRTAP10-2 (11738614_at) / Fold change /veh KRTAP10-2 (11738614_at) / RFU ARHGAP8 /// PRR5-ARHGAP8 (11727945_x_at) / Fold change /veh ARHGAP8 /// PRR5-ARHGAP8 (11727945_x_at) / RFU KRTAP5-7 /// NADSYN1 (11734609_at) / Fold change /veh KRTAP5-7 /// NADSYN1 (11734609_at) / RFU RASL12 (11751679_a_at) / Fold change /veh RASL12 (11751679_a_at) / RFU CDKN2B (11736163_a_at) / Fold change /veh CDKN2B (11736163_a_at) / RFU PRF1 (11729649_at) / Fold change /veh PRF1 (11729649_at) / RFU, ZNF638 /// ZNF638-IT1 / Fold change vs veh, ZNF638 /// ZNF638-IT1 / RFU, PANK3 / Fold change vs veh, PANK3 / RFU, SH3YL1 / Fold change vs veh, SH3YL1 / RFU, ZEB2 / Fold change vs veh, ZEB2 / RFU, NRIP1 / Fold change vs veh, NRIP1 / RFU, PTTG1IP / Fold change vs veh, PTTG1IP / RFU, CAPN2 / Fold change vs veh, CAPN2 / RFU, MED14 / Fold change vs veh, MED14 / RFU, SNORA58 / Fold change vs veh, SNORA58 / RFU, C1orf63 / Fold change vs veh, C1orf63 / RFU, LRRFIP1 / Fold change vs veh, LRRFIP1 / RFU, NDUFAF7 / Fold change vs veh, NDUFAF7 / RFU, SLC12A2 / Fold change vs veh, SLC12A2 / RFU, IBTK / Fold change vs veh, IBTK / RFU, ESF1 / Fold change vs veh, ESF1 / Fold change vs veh, TMEM50B / RFU, TAOK1 / Fold change vs veh, TAOK1 / RFU, ACBD3 / Fold change vs veh, ACBD3 / RFU, TMA16 / Fold change vs veh, TMA16 / RFU, RWDD3 / Fold change vs veh, RWDD3 / RFU, BCAT1 / Fold change vs veh, BCAT1 / RFU, EDEM3 / Fold change vs veh, EDEM3 / RFU, TMEM33 / Fold change vs veh, TMEM33 / RFU, WDR75 / Fold change vs veh, WDR75 / RFU, AHCTF1 / Fold change vs veh, AHCTF1 / RFU, TFRC / Fold change vs veh, TFRC / RFU, ZDHHC17 / Fold change vs veh, ZDHHC17 / RFU, NOM1 / Fold change vs veh, NOM1 / RFU, ARL8B / Fold change vs veh, ARL8B / RFU, ZBTB11 / Fold change vs veh, ZBTB11 / RFU, TAMM41 / Fold change vs veh, TAMM41 / RFU, KIAA1704 /// LOC100996395 / Fold change vs veh, KIAA1704 /// LOC100996395 / RFU, ING1 / Fold change vs veh, ING1 / RFU, TRMT61B / Fold change vs veh, TRMT61B / RFU, FUBP3 / Fold change vs veh, FUBP3 / RFU, TP53 / Fold change vs veh, TP53 / RFU, TNKS2 / Fold change vs veh, TNKS2 / RFU, ZFP14 / Fold change vs veh, ZFP14 / RFU, ACTR2 / Fold change vs veh, ACTR2 / RFU, PPP3R1 / Fold change vs veh, PPP3R1 / RFU, PIK3R1 / Fold change vs veh, PIK3R1 / RFU, HNRNPA1 / Fold change vs veh, HNRNPA1 / RFU, RNF170 / Fold change vs veh, RNF170 / RFU, ZNF28 / Fold change vs veh, ZNF28 / RFU, RNGTT / Fold change vs veh, RNGTT / RFU, OGT / Fold change vs veh, OGT / RFU, BRD1 / Fold change vs veh, BRD1 / RFU, MARS / Fold change vs veh, MARS / RFU, ZNF655 / Fold change vs veh, ZNF655 / RFU, FAHD1 / Fold change vs veh, FAHD1 / RFU, BDP1 / Fold change vs veh, BDP1 / RFU, LRRCC1 / Fold change vs veh, LRRCC1 / RFU, ARID1A / Fold change vs veh, ARID1A / RFU, ZNF146 / Fold change vs veh, ZNF146 / RFU, ZNF330 / Fold change vs veh, ZNF330 / RFU, GPN3 / Fold change vs veh, GPN3 / RFU, C9orf123 / Fold change vs veh, C9orf123 / RFU, N4BP2L2 / Fold change vs veh, N4BP2L2 / RFU, ARFIP1 / Fold change vs veh, ARFIP1 / RFU, FAM179B / Fold change vs veh, FAM179B / RFU, BCL10 / Fold change vs veh, BCL10 / RFU, UHRF1BP1L / Fold change vs veh, UHRF1BP1L / RFU, BET1 / Fold change vs veh, BET1 / RFU, CNOT2 / Fold change vs veh, CNOT2 / RFU, ZNF268 / Fold change vs veh, ZNF268 / Fold change vs veh, ZNF507 / RFU, DGCR2 / Fold change vs veh, DGCR2 / RFU, WDSUB1 / Fold change vs veh, WDSUB1 / Fold change vs veh, HSP90B1 /// MIR3652 / RFU, ADSS / Fold change vs veh, ADSS / RFU, GK / Fold change vs veh, GK / RFU, ZNF148 / Fold change vs veh, ZNF148 / RFU, TAF9 / Fold change vs veh, TAF9 / RFU, SLC1A5 / Fold change vs veh, SLC1A5 / RFU, SLMO2 / Fold change vs veh, SLMO2 / RFU, ABCC4 / Fold change vs veh, ABCC4 / RFU, LOC101060439 /// RAP1B / Fold change vs veh, LOC101060439 /// RAP1B / RFU, RFX7 / Fold change vs veh, RFX7 / RFU, GTPBP10 / Fold change vs veh, GTPBP10 / RFU, CNEP1R1 / Fold change vs veh, CNEP1R1 / RFU, BIVM-ERCC5 /// ERCC5 / Fold change vs veh, BIVM-ERCC5 /// ERCC5 / RFU, ILF3 / Fold change vs veh, ILF3 / RFU 11762660_at / Fold change /veh 11762660_at / RFU VCAN (11757783_s_at) / Fold change /veh VCAN (11757783_s_at) / RFU DDX43 (11728927_at) / Fold change /veh DDX43 (11728927_at) / RFU KRT8 (11758188_x_at) / Fold change /veh KRT8 (11758188_x_at) / RFU NKD1 (11759106_at) / Fold change /veh NKD1 (11759106_at) / RFU SRD5A1 (11742802_a_at) / Fold change /veh SRD5A1 (11742802_a_at) / RFU TPSAB1 /// TPSB2 (11721975_s_at) / Fold change /veh TPSAB1 /// TPSB2 (11721975_s_at) / RFU GSTM3 (11746129_a_at) / Fold change /veh GSTM3 (11746129_a_at) / RFU IL23R (11737362_x_at) / Fold change /veh IL23R (11737362_x_at) / RFU TMEM51 (11727254_a_at) / Fold change /veh TMEM51 (11727254_a_at) / RFU PIWIL2 (11732686_x_at) / Fold change /veh PIWIL2 (11732686_x_at) / RFU ORM1 (11744905_x_at) / Fold change /veh ORM1 (11744905_x_at) / RFU CCDC152 (11743942_at) / Fold change /veh CCDC152 (11743942_at) / RFU ECM1 (11717891_a_at) / Fold change /veh ECM1 (11717891_a_at) / RFU IL23R (11748794_a_at) / Fold change /veh IL23R (11748794_a_at) / RFU TNFAIP8L3 (11732012_x_at) / Fold change /veh TNFAIP8L3 (11732012_x_at) / RFU MBOAT4 (11741988_at) / Fold change /veh MBOAT4 (11741988_at) / RFU 11764193_at / Fold change /veh 11764193_at / RFU TMEM53 (11763286_at) / Fold change /veh TMEM53 (11763286_at) / RFU MAGEB2 (11727129_at) / Fold change /veh MAGEB2 (11727129_at) / RFU TMEM200A (11744735_a_at) / Fold change /veh TMEM200A (11744735_a_at) / RFU CCDC152 (11751479_a_at) / Fold change /veh CCDC152 (11751479_a_at) / RFU FAM211A (11726209_a_at) / Fold change /veh FAM211A (11726209_a_at) / RFU RGS16 (11746705_a_at) / Fold change /veh RGS16 (11746705_a_at) / RFU VCAN (11755009_s_at) / Fold change /veh VCAN (11755009_s_at) / RFU RHOB (11743442_s_at) / Fold change /veh RHOB (11743442_s_at) / RFU RGS16 (11720943_a_at) / Fold change /veh RGS16 (11720943_a_at) / RFU RGS16 (11720944_at) / Fold change /veh RGS16 (11720944_at) / RFU, VPS4B / Fold change vs veh, VPS4B / RFU, CREB1 / Fold change vs veh, CREB1 / RFU, DNAJC13 / Fold change vs veh, DNAJC13 / RFU, GNAQ / Fold change vs veh, GNAQ / RFU, CDK5R1 / Fold change vs veh, CDK5R1 / RFU, ZRANB3 / Fold change vs veh, ZRANB3 / RFU, CUL4A / Fold change vs veh, CUL4A / RFU, CCNY / Fold change vs veh, CCNY / RFU, UFL1 / Fold change vs veh, UFL1 / RFU, COG3 / Fold change vs veh, COG3 / RFU, DIAPH2 / Fold change vs veh, DIAPH2 / RFU, SKA2 / Fold change vs veh, SKA2 / RFU, AFF3 / Fold change vs veh, AFF3 / RFU, LMF1 / Fold change vs veh, LMF1 / RFU, IPO11 / Fold change vs veh, IPO11 / RFU, DFFB / Fold change vs veh, DFFB / RFU, FOXP1 / Fold change vs veh, FOXP1 / RFU, CARD8 / Fold change vs veh, CARD8 / RFU, STRN3 / Fold change vs veh, STRN3 / RFU, ADK / Fold change vs veh, ADK / RFU, RASSF2 / Fold change vs veh, RASSF2 / RFU, WIPF1 / Fold change vs veh, WIPF1 / RFU, LARP1B / Fold change vs veh, LARP1B / RFU, RASA1 / Fold change vs veh, RASA1 / RFU, RB1 / Fold change vs veh, RB1 / RFU, PPFIA1 / Fold change vs veh, PPFIA1 / RFU, MAT2A / Fold change vs veh, MAT2A / RFU, CCT5 / Fold change vs veh, CCT5 / RFU, WDR92 / Fold change vs veh, WDR92 / RFU, CUX1 / Fold change vs veh, CUX1 / RFU, TTC7A / Fold change vs veh, TTC7A / RFU, TMEM135 / Fold change vs veh, TMEM135 / RFU, DEPTOR / Fold change vs veh, DEPTOR / RFU, CPM / Fold change vs veh, CPM / RFU, DNAJB6 / Fold change vs veh, DNAJB6 / RFU, CACNA2D3 / Fold change vs veh, CACNA2D3 / RFU, DTX4 / Fold change vs veh, DTX4 / RFU, TFCP2 / Fold change vs veh, TFCP2 / RFU, GMCL1 /// GMCL1P1 / Fold change vs veh, GMCL1 /// GMCL1P1 / RFU, AEBP2 / Fold change vs veh, AEBP2 / RFU, SNHG1 /// SNORD22 /// SNORD25 /// SNORD26 /// SNORD27 /// SNORD28 /// SNORD29 /// SNORD31 / Fold change vs veh, SNHG1 /// SNORD22 /// SNORD25 /// SNORD26 /// SNORD27 /// SNORD28 /// SNORD29 /// SNORD31 / Fold change (Aza/veh), C12orf56 (ProbeSet 11735607_a_at) / Fold change (ACY-1035/veh), C12orf56 (ProbeSet 11735607_a_at) / Fold change (Aza/veh), FGFR1OP (ProbeSet 11751329_s_at) / Fold change (ACY-1035/veh), FGFR1OP (ProbeSet 11751329_s_at) / Fold change (Aza/veh), VPS36 (ProbeSet 11739960_a_at) / Fold change (ACY-1035/veh), VPS36 (ProbeSet 11739960_a_at) / RFU SYPL1 (11715823_x_at) / Fold change /veh SYPL1 (11715823_x_at) / RFU IGFBP7 (11715501_s_at) / Fold change /veh IGFBP7 (11715501_s_at) / RFU REEP3 (11722064_at) / Fold change /veh REEP3 (11722064_at) / RFU IGLL1 (11728026_x_at) / Fold change /veh IGLL1 (11728026_x_at): dose or concentration left out as unconfirmed",
  "details": "MV-4-11 cells, 48 hours",
  "data": [
    {"smiles": "Nc1ncn([C@@H]2O[C@H](CO)[C@@H](O)[C@H]2O)c(=O)n1", "note": "[azacitidine]", "values": [
      {"measurement": "RFU TUBB4B (11761932_at)", "result": 18.89, "unit": "RFU"}
    ]}
  ]
}
